The text below walks through data of patent US20050239173A1, “Production of amino sugars” (Cargill, Inc., priority 2003, published 2005).

In one assay the test system is osteoarthritis. Conditions: patients; cited from earlier work.
Assay [1] deals with S. cerevisiae strain BY4742. Description: Growth of S. cerevisiae strains in the presence of glucosamine (OD600). It counts as cell-based, Saccharomyces cerevisiae. The note with it: BY4742 GFA1pESCHis. On the procedure:
(§1) S. cerevisiae strains BY4742 and BY4743 transformed with pESCHis carrying the GFA1 insert were grown in 5 mL SC-His medium containing 2% glucose overnight at 30° C. with shaking. An aliquot (0.5 mL) from each culture was transferred to 6 flasks containing 50 mL of SC-His medium containing 2% glucose. Glucosamine at the following concentrations was added to the flasks: 0, 2, 6, 10, 15, 20 mg/mL for each strain. The incubation was continued for 28 h at 30° C. with shaking. At 3, 16 and 28 h samples were withdrawn and the optical density at 600 nm was measured.

In assay [2] the test system is S. cerevisiae strain BY4743. Described as above. The class given is cell-based, Saccharomyces cerevisiae. Conditions: BY4743 GFA1pESCHis. On the procedure:
as §1

Assay [3] deals with S. cerevisiae strain BY4742. Described as above. Conditions: parental strains of Examples 1-3 (BY4742 and BY4743); concentrations of glucosamine as high as 20 g/L. The class given is cell-based, Saccharomyces cerevisiae.
Assay [4] deals with T1, E. coli N-acetylglucosamine-6-phosphate deacetylase (Escherichia coli, UniProt P0AF18).
T1 construct: The Xa protease recognition site (IEGR) sits directly in front of the start codon of the gene of interest; His-tag (N); S-tag (N); Factor Xa recognition site (IEGR) (N); made in house; host or cells: E. coli BL21(DE3), pET30(Xa/LIC)
Description: Enzymatic deacetylation of N-acetylglucosamine followed over time (Elson and Morgan assay). It counts as biochemical. Conditions: 37° C.; for [Glucosamine]: 0.1 mL of 500 mM N-acetylglucosamine in 0.2 mL, Tris-HCl pH 7.8, nagA cell extract. On the procedure: Fermentation broth and cell extract samples were routinely assayed using the method of Elson and Morgan (Biochem. J. 27:1824-1828) described by Zalkin (1985, Method Enzymol. 113:278-281) and Roden et al. (1997, Anal. Biochem. 254:240-248). Typically, to 0.08 mL of fermentation broth or 0.015 to 0.02 mL of cell extract was added 0.01 mL of saturated sodium bicarbonate solution and 0.01 mL of cold, freshly prepared 5% aqueous acetic anhydride. After a 3 minute incubation at room temperature, the mixture was incubated at 100° C. for 3 min to drive off the excess acetic anhydride. After cooling to room temperature, 0.12 mL of potassium borate, pH 9.2, was added and the mixture was incubated at 100° C. for 3 min. After cooling to room temperature, 1.0 mL of Ehrlich's reagent (1 gram p-dimethylaminobenzaldehyde in 100 mL glacial acetic acid containing 0.125 M HCl) was added to each tube. The tubes were incubated at 37° C. for 20 min and the absorbance at 585 nm was measured. All samples were assayed in duplicate. A standard curve was generated using 0.005 to 0.1 μmole glucosamine for quantification of product formation. Samples were assayed with and without the acetic anhydride addition to determine the amounts of glucosamine and N-acetylglucosamine present in the sample. The amount of N-acetylglucosamine was calculated from the results of assays without the acetic anhydride addition. The amount of glucosamine was calculated as the difference between the results with and without the acetic anhydride addition.
The enzymatic deacetylation of N-acetylglucosamine was followed over time. In a total of 0.2 mL was mixed 0.1 mL of 500 mM N-acetylglucosamine, 0.02 mL of 0.5 M Tris-HCl, pH 7.8 and nagA protein (cell extract fraction; 3.5 mg/mL protein). The mixtures were incubated from 0 to 120 min at 37° C. To distinguish between glucosamine and N-acetylglucosamine using the Elson and Morgan method described in the Materials and Methods section, the product formation in the samples was measured with and without the acetylation step. The amount of glucosamine was calculated as the difference between the assay results with and without the acetylation step. After 120 min approximately 74% of the substrate N-acetylglusosamine was converted to glucosamine.

The target in assay [5] is glucosamine-6-phosphate synthase (Escherichia coli, UniProt P17169). The note with it: White, Biochem. J. 106:847-858 (1968); cited from earlier work.
Sequence of glucosamine-6-phosphate synthase (P17169 whole entry): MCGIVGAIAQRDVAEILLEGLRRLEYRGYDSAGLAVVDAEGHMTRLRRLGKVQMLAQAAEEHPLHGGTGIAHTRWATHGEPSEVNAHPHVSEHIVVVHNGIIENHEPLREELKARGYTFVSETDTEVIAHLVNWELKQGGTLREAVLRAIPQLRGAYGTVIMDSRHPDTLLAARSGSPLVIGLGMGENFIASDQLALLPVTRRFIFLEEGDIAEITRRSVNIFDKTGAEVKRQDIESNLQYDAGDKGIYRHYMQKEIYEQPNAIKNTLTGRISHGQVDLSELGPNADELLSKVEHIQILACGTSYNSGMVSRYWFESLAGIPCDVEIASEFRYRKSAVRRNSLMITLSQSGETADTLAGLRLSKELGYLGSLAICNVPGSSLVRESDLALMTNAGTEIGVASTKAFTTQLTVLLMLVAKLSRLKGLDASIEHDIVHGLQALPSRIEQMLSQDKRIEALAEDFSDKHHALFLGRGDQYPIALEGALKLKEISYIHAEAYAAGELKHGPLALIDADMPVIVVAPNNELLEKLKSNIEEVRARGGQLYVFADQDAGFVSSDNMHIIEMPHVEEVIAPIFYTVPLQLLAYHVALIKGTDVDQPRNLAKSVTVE

In the case of `N[C@H]1C(O)O[C@H](CO)[C@@H](O)[C@@H]1O` (stereo partly shown) [glucosamine, 2-amino-2-deoxyglucopyranose], in the assay on osteoarthritis, the “effect on joint structure” value was “improve joint structure”. Moreover, the “effect on pain of osteoarthritis” value in the assay with osteoarthritis is reported as “reduce the pain of osteoarthritis in some patients”. Also, the OD600 in assay [1] (glucosamine 2.0 mg/mL, 3 h) is 0.71; in assay [1] (glucosamine 2.0 mg/mL, 16 h), 3.06; in assay [1] (glucosamine 2.0 mg/mL, 28 h), 3.32; in assay [1] (glucosamine 6.0 mg/mL, 3 h), 0.66; in assay [1] (glucosamine 6.0 mg/mL, 16 h) it was 2.98; in assay [1] (glucosamine 6.0 mg/mL, 28 h), 3.27. For the same molecule, the OD600 in assay [1] (glucosamine 10.0 mg/mL, 3 h) is 0.64; in assay [1] (glucosamine 10.0 mg/mL, 16 h), 2.87; in assay [1] (glucosamine 10.0 mg/mL, 28 h) it was 3.06; in assay [1] (glucosamine 15.0 mg/mL, 3 h), 0.60; in assay [1] (glucosamine 15.0 mg/mL, 16 h), 2.92; in assay [1] (glucosamine 15.0 mg/mL, 28 h), 3.22. The OD600 in assay [1] (glucosamine 20.0 mg/mL, 3 h) turned out to be 0.57; in assay [1] (glucosamine 20.0 mg/mL, 16 h) it was 2.84; in assay [1] (glucosamine 20.0 mg/mL, 28 h) it was 3.02; in assay [2] (glucosamine 2.0 mg/mL, 3 h), 0.74; in assay [2] (glucosamine 2.0 mg/mL, 16 h) it was 4.12; in assay [2] (glucosamine 2.0 mg/mL, 28 h), 4.69. Also, the OD600 in assay [2] (glucosamine 6.0 mg/mL, 3 h) came to 0.76; in assay [2] (glucosamine 6.0 mg/mL, 16 h) it was 3.99; in assay [2] (glucosamine 6.0 mg/mL, 28 h), 5.02; in assay [2] (glucosamine 10.0 mg/mL, 3 h) it was 0.66; in assay [2] (glucosamine 10.0 mg/mL, 16 h), 4.18; in assay [2] (glucosamine 10.0 mg/mL, 28 h), 4.36. For the same molecule, the OD600 in assay [2] (glucosamine 15.0 mg/mL, 3 h) is on record as 0.68; in assay [2] (glucosamine 15.0 mg/mL, 16 h), 4.00; in assay [2] (glucosamine 15.0 mg/mL, 28 h), 4.14; in assay [2] (glucosamine 20.0 mg/mL, 3 h), 0.38; in assay [2] (glucosamine 20.0 mg/mL, 16 h), 3.78; in assay [2] (glucosamine 20.0 mg/mL, 28 h) it was 3.98. In addition, in assay [3], the “effect of glucosamine on the parental strains” value is on record as “not affected”.
On to `CC(=O)N[C@@H](C=O)[C@@H](O)[C@H](O)[C@H](O)CO` [N-acetylglucosamine, 2-acetamino-2-deoxy-D-glucose], for which the “[Glucosamine]” value is given as 0.0 mM in assay [4] (0 min); 126.3 mM in assay [4] (15 min); 136.3 mM in assay [4] (30 min); 161.3 mM in assay [4] (60 min); 185.0 mM in assay [4] (120 min). In addition, in assay [4] (after 120 min, nagA cell extract), the “substrate converted to glucosamine” value was “approximately 74%”.
`N[C@H]1C(O)O[C@H](COP(=O)(O)O)[C@@H](O)[C@@H]1O` (stereo partly shown) [glucosamine-6-phosphate]: in assay [5], the “inhibition of glucosamine-6-phosphate synthase activity” value is given as “inhibited”.
